Experimental data published in US8383817B2, “Benztropine compounds and uses thereof” (The United States of America, as represented by the …, priority 2005, dated 2013).

Legend:
SERT = molecular target: T1, SERT (Rattus norvegicus, UniProt P31652); experiment: [3H]Citalopram Binding Assay, rat midbrain membranes
T1 construct: Membranes from frozen rat midbrain were homogenized; from tissue; host or cells: rat midbrain membranes

DA uptake = molecular target: T2, DA uptake (Rattus norvegicus, UniProt P23977); experiment: Dopamine Uptake Assay, [3H]dopamine in synaptosomal tissue preparation; assay type: biochemical
T2 construct: The synaptosomal tissue preparation was incubated in buffer in glass test tubes at 37° C; from tissue
T2 sequence (P23977 whole entry): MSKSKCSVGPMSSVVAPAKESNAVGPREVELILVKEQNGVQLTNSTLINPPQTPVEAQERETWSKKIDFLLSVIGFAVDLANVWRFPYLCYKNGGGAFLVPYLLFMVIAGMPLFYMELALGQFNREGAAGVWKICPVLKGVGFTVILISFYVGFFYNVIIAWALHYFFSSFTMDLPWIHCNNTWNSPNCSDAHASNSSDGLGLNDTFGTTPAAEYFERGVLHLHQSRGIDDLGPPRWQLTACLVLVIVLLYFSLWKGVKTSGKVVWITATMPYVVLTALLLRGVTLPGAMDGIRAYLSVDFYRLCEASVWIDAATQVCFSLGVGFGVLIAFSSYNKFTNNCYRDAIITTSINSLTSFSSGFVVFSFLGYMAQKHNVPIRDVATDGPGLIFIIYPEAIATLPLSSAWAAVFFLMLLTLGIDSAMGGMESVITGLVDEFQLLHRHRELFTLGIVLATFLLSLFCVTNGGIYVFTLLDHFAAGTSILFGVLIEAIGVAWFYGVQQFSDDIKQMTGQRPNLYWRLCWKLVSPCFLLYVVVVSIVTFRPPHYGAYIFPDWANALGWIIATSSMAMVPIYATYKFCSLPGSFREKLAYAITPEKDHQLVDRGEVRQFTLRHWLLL

DAT = molecular target: T3, DAT (Rattus norvegicus, UniProt P23977); experiment: biochemical; assay type: binding
T3 construct: their brains removed to an ice-cooled dish for dissection of the caudate putamen; from tissue; host or cells: rat caudate putamen homogenate
T3 sequence (P23977 whole entry): as above

muscarinic M1 receptor = molecular target: T4, muscarinic M1 receptor (Rattus norvegicus, UniProt P08482); experiment: [3H]Pirenzepine Binding Assay, rat brain membranes
T4 construct: Membranes from frozen rat brains excluding cerebellum were thawed; from tissue; host or cells: rat brain (excluding cerebellum) membranes
T4 sequence (P08482 1-460): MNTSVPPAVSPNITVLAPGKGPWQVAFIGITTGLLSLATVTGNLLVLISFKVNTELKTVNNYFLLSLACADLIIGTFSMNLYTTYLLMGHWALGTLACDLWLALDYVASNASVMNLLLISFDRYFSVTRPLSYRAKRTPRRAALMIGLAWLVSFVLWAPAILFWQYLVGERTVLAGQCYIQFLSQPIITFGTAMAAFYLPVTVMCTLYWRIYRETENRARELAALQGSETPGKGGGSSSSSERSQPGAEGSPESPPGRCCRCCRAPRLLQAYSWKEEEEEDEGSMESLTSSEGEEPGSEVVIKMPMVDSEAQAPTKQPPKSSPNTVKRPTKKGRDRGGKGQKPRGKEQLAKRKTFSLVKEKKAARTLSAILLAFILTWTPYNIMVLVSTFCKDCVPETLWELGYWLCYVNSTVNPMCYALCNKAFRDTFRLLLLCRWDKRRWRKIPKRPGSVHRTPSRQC

NET = molecular target: T5, NET (Rattus norvegicus, UniProt Q9WTR4); assay type: binding; settings: read-out: NET Ki; Table 2
T5 construct: rows headed: NET Ki; NET Ki

[1] = Cocaine Discrimination Assay; assay type: in vivo, rat; settings: rats trained to discriminate IP 10 mg/kg cocaine from saline; 80% or higher = full substitution; FIG. 1
[2] = Model For Determining Increase in Attention; assay type: in vivo, rat; settings: rats, five-hole chamber, 40 min session, FIG. 4B
Description: Model For Determining Increase in Attention. Rats were trained during daily sessions in a chamber which contained five holes along one wall. When a light came on behind one of the holes, the rat had 5 sec to respond by putting its nose in the hole. If it did this, a food pellet was dispensed. Lights came on for one second randomly in time. Each tenth “correct” response produced a food pellet. The rat had to continuously monitor (attend to) the lights to perform well. The results were measured and illustrated in FIG. 4A. […] The short diagonal marks on the line indicate the occasions on which food pellets were delivered.
Rats were administered a dose of a compound of Formula III, in which R^1 is methyl and R^2 and R^3 are each fluoro. The same task was applied and the number of correct and incorrect responses was measured. The results are depicted in FIG. 4B.

[3] = Model For Reducing Effect of Nicotine (nicotine discrimination); assay type: in vivo, rat; settings: rats; dose 1.0 mg/kg; nicotine only control 50%
From the text: Model For Reducing Effect of Nicotine. Food-deprived rats were trained to press one lever for a food pellet after nicotine administration and a second lever after vehicle administration. Pellets of food were delivered intermittently, so that every twentieth response produced food. Using this procedure, the only cue for the rat regarding which lever occasionally pays off with a food pellet, is the subjective effect of the nicotine. When the rats were accurately and reliably identifying the nicotine injections (approximately all of its responses on the lever that occasionally pays off after nicotine or saline), testing began. The rats were pretreated with a compound of Formula III before nicotine injection, and the experiment progressed as described above, except responses on either lever intermittently produced food. A 50% effective nicotine dose was reduced to low levels of effectiveness upon administration of a compound of Formula III.

T1 sequence (P31652 whole entry): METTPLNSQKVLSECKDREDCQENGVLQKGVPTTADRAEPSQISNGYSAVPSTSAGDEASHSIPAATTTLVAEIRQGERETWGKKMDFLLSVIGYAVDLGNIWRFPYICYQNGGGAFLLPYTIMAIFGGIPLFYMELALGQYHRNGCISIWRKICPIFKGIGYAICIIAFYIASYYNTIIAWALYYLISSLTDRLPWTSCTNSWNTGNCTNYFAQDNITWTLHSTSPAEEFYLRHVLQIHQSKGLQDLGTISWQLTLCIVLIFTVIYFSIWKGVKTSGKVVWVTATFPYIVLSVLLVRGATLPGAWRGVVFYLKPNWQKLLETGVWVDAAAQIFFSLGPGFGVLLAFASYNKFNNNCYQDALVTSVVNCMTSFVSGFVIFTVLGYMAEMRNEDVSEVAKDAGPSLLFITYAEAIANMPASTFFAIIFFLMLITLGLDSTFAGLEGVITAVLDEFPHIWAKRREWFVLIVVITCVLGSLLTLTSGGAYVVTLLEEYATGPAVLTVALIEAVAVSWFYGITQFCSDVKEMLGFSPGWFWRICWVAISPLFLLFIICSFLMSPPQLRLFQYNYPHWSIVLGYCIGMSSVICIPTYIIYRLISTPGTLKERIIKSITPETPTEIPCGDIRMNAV

SMILES	Ki (SERT) [nM]	IC50 (DA uptake) [nM]	Ki (DAT) [nM]	Ki (muscarinic M1 receptor) [nM]	Ki (NET) [nM]	Substitution for cocaine (cocaine-appropriate responding) [1]	Number of correct responses (attention to brief light stimuli) [2]	Effect (of a 50% effective nicotine dose after pretreatment) [3] [%]
COC(=O)[C@@H]1[C@@H](OC(c2ccc(Cl)cc2)c2ccc(Cl)cc2)C[C@H]2CC[C@@H]1N2C [Compound S-14]	528 ± 39	2.46 ± 0.2	12.6 ± 0.4	382 ± 37	2150 ± 325			
CCOC(=O)[C@@H]1[C@@H](OC(c2ccc(Cl)cc2)c2ccc(Cl)cc2)C[C@H]2CC[C@@H]1N2C [Compound S-15, S-(+)-2β-Carboethoxy-3α-[bis(4-chlorophenyl)methoxy]tropane]	1560 ± 91	1.52 ± 0.2	14.6 ± 0.39	3060 ± 150	3350 ± 154			
CN1[C@@H]2CC[C@@H]1CC(OC(c1ccc(F)cc1)c1ccc(F)cc1)C2 (stereo partly shown) [AHN 1-055]						did not fully substitute for cocaine	far greater than before treatment	7.65
